Experimental findings from ChEMBL document CHEMBL1146455, “New geranyl stilbenes from Dalea purpurea with in vitro opioid receptor affinity” (J Nat Prod, 2004) are described below.

This test in a line: Displacement of [3H]naloxone from opioid receptor in Sprague-Dawley rat striatal membrane by scintillation spectrophotometry. Also on record: species or system Striatum.

Molecules are shown by their SMILES. Where only a bound is given, the exact number is not on record here.

Broadly, the Ki is a measure of affinity in units of concentration, obtained from inhibition or displacement. Higher therefore signals a looser hold on the target. For `CC(C)=CCCC1(C)C=Cc2c(O)cc(/C=C/c3ccc(O)c(O)c3)cc2O1` (centres undefined) [PAWHUSKIN B], the Ki stood at 11.4 µM.

Take `CC(C)=CCC/C(C)=C/Cc1c(O)cc(O)cc1/C=C/c1ccc(O)c(O)c1CC=C(C)C` [PAWHUSKIN A]: the Ki is 0.29 µM.

The compound `CC(C)=CCC/C(C)=C/Cc1c(O)cc(/C=C/c2ccc(O)c(O)c2)cc1O` [PAWHUSKIN C] displayed an inhibitory constant (Ki) of 4.2 µM.

Consider `CC(C)=CCc1cc(O)c(O)c(CC=C(C)C)c1[C@H]1Oc2c(CC=C(C)C)c(O)cc(O)c2C(=O)[C@@H]1O` [PETALOSTEMUMOL], for which the Ki was > 100 µM.
